Assay results from ChEMBL document CHEMBL4390695, “Veratric acid derivatives containing benzylidene-hydrazine moieties as promising tyrosinase inhibitors and free radical scavengers” (Bioorg Med Chem, 2019).
Blank lines part the entries; values can stand above or below the molecule they belong to. The source made the active and inactive calls. The calls are words filed in the database; no cut-off is given here.

Experiments:
Tyrosinase = molecular target: T1, Tyrosinase (Agaricus bisporus, UniProt O42713); test: Inhibition of mushroom tyrosinase assessed as reduction in dopachrome formation using L-DOPA as substrate preincubated for 20 mins followed by substrate addition by spectrophotometry
T1 sequence (O42713 whole entry): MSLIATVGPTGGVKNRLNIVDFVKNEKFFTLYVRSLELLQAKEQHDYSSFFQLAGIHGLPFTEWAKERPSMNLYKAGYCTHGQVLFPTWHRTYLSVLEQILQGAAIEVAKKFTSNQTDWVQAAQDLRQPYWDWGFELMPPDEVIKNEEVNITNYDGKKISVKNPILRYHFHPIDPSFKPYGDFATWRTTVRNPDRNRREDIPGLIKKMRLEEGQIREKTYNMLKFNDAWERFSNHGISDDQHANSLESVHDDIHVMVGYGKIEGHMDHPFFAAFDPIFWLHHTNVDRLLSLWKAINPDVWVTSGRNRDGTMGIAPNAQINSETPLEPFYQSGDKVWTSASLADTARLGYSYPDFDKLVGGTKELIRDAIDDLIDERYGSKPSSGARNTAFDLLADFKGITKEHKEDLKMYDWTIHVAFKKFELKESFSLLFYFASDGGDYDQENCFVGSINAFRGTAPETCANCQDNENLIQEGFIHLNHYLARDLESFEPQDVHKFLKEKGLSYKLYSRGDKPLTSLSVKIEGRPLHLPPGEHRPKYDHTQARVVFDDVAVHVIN

[1] = molecular target: T2, Tyrosinase (Agaricus bisporus) (UniProt O42713); test: Competitive inhibition of mushroom tyrosinase assessed as reduction in dopachrome formation at 50 uM using L-DOPA as substrate preincubated for 20 mins followed by substrate addition by spectrophotometry based Lineweaver-Burk plot analysis
T2 sequence (whole entry): T1 sequence (O42713 whole entry)

[2] = compound: COc1ccc(C(=O)N/N=C/c2ccc(Cl)cc2)cc1OC; test: Competitive inhibition of mushroom tyrosinase assessed as reduction in dopachrome formation by measuring substrate Km at 50 uM using L-DOPA as substrate preincubated for 20 mins followed by substrate addition by spectrophotometry based Lineweaver-Burk plot analysis (reference value: […] mM); conditions: Agaricus bisporus
[3] = compound: COc1ccc(C(=O)N/N=C/c2ccc(Cl)cc2)cc1OC; test: Competitive inhibition of mushroom tyrosinase assessed as reduction in dopachrome formation by measuring substrate Vmax at 50 uM using L-DOPA as substrate preincubated for 20 mins followed by substrate addition by spectrophotometry based Lineweaver-Burk plot analysis (reference value: […] mM/min); conditions: Agaricus bisporus

IC50 (Tyrosinase): > 50 µM
Molecule: COc1ccc(/C=N/NC(=O)c2ccc(OC)c(OC)c2)cc1OC

IC50 (Tyrosinase): 31.5 µM
Molecule: COc1ccc(C(=O)N/N=C/c2ccc(O)cc2O)cc1OC

IC50 (Tyrosinase): 35.2 µM
Molecule: COc1ccccc1/C=N/NC(=O)c1ccc(OC)c(OC)c1

IC50 (Tyrosinase): > 50 µM
Molecule: COc1ccc(C(=O)N/N=C/c2ccc(Br)cc2)cc1OC

IC50 (Tyrosinase): > 50 µM
Molecule: COc1ccc(C(=O)N/N=C/c2ccc(O)cc2)cc1OC

IC50 (Tyrosinase): > 50 µM
Molecule: COc1ccc(C(=O)N/N=C/c2ccc(N(C)C)cc2)cc1OC

IC50 (Tyrosinase): > 50 µM
Molecule: COc1cc(/C=N/NC(=O)c2ccc(OC)c(OC)c2)ccc1O

IC50 (Tyrosinase): 37.4 µM
Molecule: COc1ccc(C(=O)N/N=C/c2cc(OC)c(OC)c(OC)c2)cc1OC

IC50 (Tyrosinase): > 50 µM
Molecule: COc1ccc(/C=N/NC(=O)c2ccc(OC)c(OC)c2)cc1

IC50 (Tyrosinase): 20.6 µM
Molecule: COc1ccc(C(=O)N/N=C/c2cccc(O)c2O)cc1OC

inhibition [1]: Active
IC50 (Tyrosinase): 19.7 µM
Molecule: COc1ccc(C(=O)N/N=C/c2ccc(Cl)cc2)cc1OC

IC50 (Tyrosinase): > 50 µM
Molecule: COc1ccc(C(=O)N/N=C/c2cccc([N+](=O)[O-])c2)cc1OC

IC50 (Tyrosinase): > 50 µM
Molecule: COc1ccc(C(=O)N/N=C/c2cc(OC)c(O)c(OC)c2)cc1OC

IC50 (Tyrosinase): > 50 µM
Molecule: COc1ccc(C(=O)N/N=C/c2ccc([N+](=O)[O-])cc2)cc1OC

IC50 (Tyrosinase): > 50 µM
Molecule: CCOc1cc(/C=N/NC(=O)c2ccc(OC)c(OC)c2)ccc1O

IC50 (Tyrosinase): 28.3 µM
Molecule: COc1ccc(C(=O)N/N=C/c2ccc(OC(C)=O)c(OC)c2)cc1OC

B1: Tyrosinase (Agaricus bisporus), O42713 (protein)
chain: T1 sequence (O42713 whole entry)
Km [2]: 5.88 mM
Vmax [3]: 0.15 mM/min
